Assay results from US20090074885A1, “Reversible Hydrophobic Modification of Drugs for Improved Delivery to Cells” (Roche Madison Inc., priority 2003, published 2009).

Legend:
hepatocytes = assay: Uptake by hepatocytes in vivo after intraportal injection (occluded blood flow); design: species or system mouse; settings: normal liver, portal vein injection; for cells (hepatocytes) PI positive: 0.300 μmol
Protocol: Uptake of BDMODS-PI by hepatocytes in vivo. Intraportal injections were conducted in order to target hepatocytes. For the injections, both the portal vein and the celiac artery were clamped to occlude blood flow into the liver. The vena cava was not clamped in order to avoid increased pressure within the liver during the injection procedure. The blood in the liver was flushed out with 1 ml of ITG delivered through the portal vein (1 min). 0.300 μmol PI or II in 40 μl of DMF was then delivered together with 400 μl ITG via the mixing chamber. 5 min after injection the livers were perfused with 3 ml of ITG to flush any drug remaining in the vasculature, and livers were sectioned as above or the hepatocytes were isolated. Slides were prepared from the resulting hepatocyte isolations for examination by fluorescent microscopy (Axioplan2 fluorescent microscope in the fluorescein fluorescent channel (λex=BP 546/90, λem=LP 515 nm filter set) due to signal intensity, magnification=400×, Zeiss) by placing a drop of the cell suspension (about 20 μl) on a clean glass slide and preparing a cell smear. Random fields were examined, and the number of positive cells was counted out of a total of 200 cells in order to determine the percentage of PI positive cells in the sample.
The amount of PI retained in hepatocytes was also quantitated following intraportal injections of PI and II. The isolated hepatocyte cell suspensions were dissolved in 0.5% octyl glycoside in 10 mM HEPES buffer, pH 7.5. Nucleic acid was then isolated from cell suspensions (0.5 ml) using phenol extraction. PI fluorescence spectra were monitored (Shimadzu RF 1501 Spectrophotometer) using an excitation wavelength of 530 nm and an emission wavelength of 617 nm. All spectra were background subtracted using the fluorescence of cell suspensions from untreated animals. PI calibration curves were generated by mixing increasing amounts of PI in each of the samples. […] The amount of PI uptake was then calculated according to the equation: Amt(%)=100×PIs/PIi, where PIs is the amount of PI in the cell suspension and PIi is the amount of PI or BDMOD-PI injected (corrected for the sample size relative to the total liver).

[1] = tested on: various tissues of normal mice; assay: Propidium iodide delivery to a variety of target cells by injection or topical administration; type: in vivo, mouse
Protocol: Propidium iodide delivery to a variety of target cells. […] All biliary and gall bladder arteries, as well as bladder epithelium also stained (FIG. 14B). […] During injection time the common carotid artery was temporary occluded. After injection the blood flow was restored and animals sacrificed 5 min later. […] After three weeks, mice were injected with modified PI. […] Injection was performed using similar 35 G needle into right ureter close to the bladder. […] Clamps were then released and 5 min later animals were sacrificed. The intestine lumen was flushed with 1 ml of ITG and analyzed as described above.

[2] = tested on: SK-OV-3 peritoneal tumors; assay: Direct application / IP injection in mouse model of disseminated peritoneal ovarian cancer; type: in vivo, nude mice; settings: two weeks after SK-OV-3 inoculation, direct application or IP injection
Protocol: BDMODS-PI and C12PMMA-PI show enhanced drug uptake by surface tissue and microtumors following IP and intraperitoneal perfusion chemotherapy (IPPC) application in a mouse tumor model. For establishment of the cancer model, 2×10^6 SK-OV-3 cells were injected IP into nude mice. The mice were examined at two weeks following cell inoculation, or at the first manifestation of ascites (about 4-5 wks). Tissue samples were fixed in 10% NBF, routinely processed, stained with H&E stain, and subjected to histopathological analysis. […] At 4-5 weeks after SK-OV-3 cell inoculation, maximum tumor size increased to 5-7 mm with the bulk of cancer development present as about 0.1 to about 1 mm microtumors (FIG. 9). At 5 wks most peritoneal surfaces were affected by growing cancer cells, coating both the visceral and parietal peritoneum, e.g. liver, pancreas, and diaphragm. […]
Two weeks following cell inoculation, the abdominal cavity was opened and the drug mixture was directly applied on the duodenum and ovary/uterus/fallopian tubes (220 μL of drug-OS/ITG over 30 sec). […] Cellular uptake of the prodrug was stronger at the surface of the metastases, but also readily detectable in the middle of the small tumors (tumor size about 0.5 to about 1 mm; FIG. 7-8). […]

[3] = Analysis of prodrug lability (rate of hydrolysis) of PI derivatives by fluorescent spectroscopy; type: physicochemical; settings: for Half-life: extrapolated to pure buffer (100 mol % H2O)
Protocol: Analysis of prodrug lability. The prodrugs were tested for their rate of hydrolysis at pH 6.0, 7.2 and 8.5 using fluorescent spectroscopy. Lability studies for C12CON-PI and RRH-PI (rapidly reversible hydrophobic-PI) derivatives were conducted on a Cary Eclipse Fluorescence Spectrophotometer (Varian Inc.).
To solutions of PI and RRH-prodrugs of PI (7.48 μM in DMSO) were added various amounts of buffer (25 μL, 50 μL, and 100 μL of 20 mM Hepes buffer) at different pH. Upon cleavage of the hydrophobic modification and regeneration of PI, the fluorescence of the solution increased (λex=493 nm, λem=647 nm, excitation and emission slit width=5 nm, and emission PMT=600V) and was assayed as a function of time (20 min).
The resulting curves were normalized for intensity and fit to an exponential equation (Origin) to determine kdetermined for each solution. The kdetermined for each compound at appropriate pH were plotted against the mol % of H2O, and the best fit line was solved for kbuffer for 100 mol % H2O. These derived kbuffer values were used to determine the half-life of the prodrug in pure buffer according to the equation t1/2=1n2/k.

[4] = tested on: rapidly dividing hepatocytes; assay: Mitosis of hepatocytes after 70% partial hepatectomy and portal vein delivery; type: in vivo, ICR mice; settings: 2 days after treatment, 0.150 μmol intraportal
Protocol: Delivery of RRH-PI to rapidly dividing cells results in a decrease in the number of cells in mitosis. […] Following the hepatectomy, PI or III (0.150 μmol, 220 μl total injection volume) were delivered to the liver via the portal vein using the mixing chamber. The abdominal cavity was closed in two layers with 4-0 Braunamid suture. After 48 h, the animals were sacrificed, the livers were harvested, formalin fixed, paraffin imbedded, sectioned, and H&E stained. […] Results are reported as the percentage of cells in metaphase (±standard deviation).

[5] = intestinal intra lumen application, 100 μg

| Structure (SMILES) | injected PI bound to hepatocyte nucleic acid (hepatocytes) [%] | cells (hepatocytes) PI positive (hepatocytes) | nuclear staining ([1]; injection into bile duct of normal mouse liver) | nuclear staining ([1]; injection into emptied bladder) | nuclear staining ([1]; injection into hepatic artery of normal mouse liver) | nuclear staining ([1]; injection into right carotid artery) | nuclear staining ([1]; injection into the ureter) | nuclear staining ([1]; injection into unclamped portal vein with preserved blood flow) | nuclear staining [1, 5] | nuclear staining ([1]; portal vein clamped during injection) | labeling of peritoneal tumors [2] | k ([3]; pH 7.2) | Half-life ([3]; pH 7.2) [s] | Half-life ([3]; pH 7.2, listed as BDMODS-PI (II)) [s] | k ([3]; pH 8.5) | Half-life ([3]; pH 8.5) [s] | Half-life ([3]; pH 8.5, listed as BDMODS-PI (II)) [s] | nuclear staining ([1]; injection into any vessel or bile duct of normal liver) | hepatocytes in metaphase [4] [%] |
| --- | --- | --- | --- | --- | --- | --- | --- | --- | --- | --- | --- | --- | --- | --- | --- | --- | --- | --- | --- |
| CCCCCCCCCCCCCCCCCC[Si](C)(C)Nc1ccc2c(c1)c(-c1ccccc1)[n+](CCC[N+](C)(CC)CC)c1cc(N[Si](C)(C)CCCCCCCCCCCCCCCCCC)ccc21.[I-].[I-] [II, 3,8-bis[((dimethyl)octadecylsilazyl)amine] 5-(3,3-diethyl-3-methylammoniumpropyl) 6-phenyl phenanthridinium diiodide] | 14 | approximately 70% | strong nuclear staining of all bile duct epithelial cells | strong staining of bladder transitional epithelium | strong nuclear staining of hepatic artery endothelial and smooth-muscle cells | strong staining of brain endothelial cells | strong staining of ureter transitional epithelium nuclei | strong nuclear staining of portal vein cells only | strong labeling of all enterocyte nuclei | propidium iodide staining was observed in a majority of hepatocytes | intensely labeled | (3.96 min^−1) | 11 | 10.5 | (1.80 min^−1) | 23 | 23.1 | – | – |
| CC[N+](C)(CC)CCC[n+]1c(-c2ccccc2)c2cc(N)ccc2c2ccc(N)cc21.[I-].[I-] [PI, Propidium iodide, reference compound] | 1.2 | approximately 1% | – | – | – | – | – | – | PI staining was observed in a few intestinal villi cells | – | – | – | – | – | – | – | – | little to no nuclear staining | 7.0 |
| CCCCCCCCCCCCNC(=O)CCC(=CCC(=O)O)C(=O)Nc1ccc2c(c1)c(-c1ccccc1)[n+](CCC[N+](C)(CC)CC)c1cc(NC(=O)C(=CCC(=O)O)CCC(=O)NCCCCCCCCCCCC)ccc21.[I-].[I-] [III, 3,8-bis-[2-(2 carboxyethylidene)-4-(dodecarbamoyl)-1-oxo-butylamine] 5-(3,3-diethyl-3-methylammoniumpropyl) 6-phenyl phenanthridinium diiodide] | – | – | – | – | – | – | – | – | – | – | intensely labeled | (5.05 min^−1) | – | – | (1.97 min^−1) | – | – | – | 2.3 |
